Source: patent US20230085307A1, “PYRIDAZINONE COMPOUND AND HERBICIDE” (NISSAN CHEMICAL CORPORATION, priority 2019, published 2023)

Legend:
southern crabgrass [1] = test: Test Example 5: herbicidal effect by foliage application, plastic box (Table 20, symbol F); format: in vivo, southern crabgrass (Digitaria ciliaris); settings: foliage application, three weeks after application
How it was run: (§1)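 Post-emergence foliar test in sterilized diluvial soil. Compound applied as water-diluted emulsion at a predetermined rate to 14-day-old plants; evaluation at three weeks.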

velvetleaf [2] = test: Test Example 4: herbicidal effect by soil treatment (Table 19, symbol M); format: in vivo, velvetleaf (Abutilon theophrasti)
How it was run: (§2)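 Scoring uses the grading scale of an earlier test, three weeks post-application. Treatment consists of spraying a diluted emulsion formulation across the surface of sterilized diluvial soil in which seeds are buried near 1.5 cm deep; boxes are kept in a greenhouse between 25° C. and 30° C.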

Italian ryegrass [3] = test: Test Example 4: herbicidal effect by soil treatment (Table 19, symbol K); format: in vivo, Italian ryegrass (Lolium multiflorum)
How it was run: as §2

green foxtail [4] = test: Test Example 5: herbicidal effect by foliage application, plastic box (Table 20, symbol G); format: in vivo, green foxtail (Setaria viridis); settings: foliage application, three weeks after application
How it was run: as §1

blackgrass [5] = test: Test Example 5: herbicidal effect by foliage application, plastic box (Table 20, symbol J); format: in vivo, blackgrass (Alopecurus myosuroides); settings: foliage application, three weeks after application
How it was run: as §1

rice flat sedge = test: Test Example 3: herbicidal effect by foliage application, Wagner pot (Table 18, symbol E); format: in vivo, rice flat sedge (Cyperus iria)
How it was run: (§3)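 Plants were sown in alluvial soil held under 0.1–0.5 cm standing water and grown 14 days in a greenhouse at 25–30 °C. An emulsifiable formulation, water-diluted to the set dose, was then sprayed onto the foliage, and effects were scored three weeks later using previously defined criteria.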

redroot pigweed [6] = test: Test Example 4: herbicidal effect by soil treatment (Table 19, symbol N); format: in vivo, redroot pigweed (Amaranthus retroflexus)
How it was run: as §2

chickweed [7] = test: Test Example 4: herbicidal effect by soil treatment (Table 19, symbol P); format: in vivo, common chickweed (Stellaria media)
How it was run: as §2

false cleavers [8] = test: Test Example 4: herbicidal effect by soil treatment (Table 19, symbol Q); format: in vivo, false cleavers (Galium spurium)
How it was run: as §2

Italian ryegrass [9] = test: Test Example 5: herbicidal effect by foliage application, plastic box (Table 20, symbol K); format: in vivo, Italian ryegrass (Lolium multiflorum); settings: foliage application, three weeks after application
How it was run: as §1

blackgrass [10] = test: Test Example 4: herbicidal effect by soil treatment (Table 19, symbol J); format: in vivo, blackgrass (Alopecurus myosuroides)
How it was run: as §2

windgrass [11] = test: Test Example 5: herbicidal effect by foliage application, plastic box (Table 20, symbol L); format: in vivo, windgrass (Apera spica-venti); settings: foliage application, three weeks after application
How it was run: as §1

wild oat [12] = test: Test Example 4: herbicidal effect by soil treatment (Table 19, symbol I); format: in vivo, wild oat (Avena fatua)
How it was run: as §2

velvetleaf [13] = test: Test Example 5: herbicidal effect by foliage application, plastic box (Table 20, symbol M); format: in vivo, velvetleaf (Abutilon theophrasti); settings: foliage application, three weeks after application
How it was run: as §1

persian speedwell [14] = test: Test Example 4: herbicidal effect by soil treatment (Table 19, symbol R); format: in vivo, Persian speedwell (Veronica persica)
How it was run: as §2

southern crabgrass [15] = test: Test Example 4: herbicidal effect by soil treatment (Table 19, symbol F); format: in vivo, southern crabgrass (Digitaria ciliaris)
How it was run: as §2

lambsquarters [16] = test: Test Example 5: herbicidal effect by foliage application, plastic box (Table 20, symbol O); format: in vivo, lambsquarters (Chenopodium album); settings: foliage application, three weeks after application
How it was run: as §1

barnyard grass [17] = test: Test Example 3: herbicidal effect by foliage application, Wagner pot (Table 18, symbol H); format: in vivo, barnyard grass (Echinochloa crus-galli)
How it was run: as §3

lambsquarters [18] = test: Test Example 4: herbicidal effect by soil treatment (Table 19, symbol O); format: in vivo, lambsquarters (Chenopodium album)
How it was run: as §2

redroot pigweed [19] = test: Test Example 5: herbicidal effect by foliage application, plastic box (Table 20, symbol N); format: in vivo, redroot pigweed (Amaranthus retroflexus); settings: foliage application, three weeks after application
How it was run: as §1

Chinese sprangletop = test: Test Example 3: herbicidal effect by foliage application, Wagner pot (Table 18, symbol D); format: in vivo, chinese sprangletop (Leptochloa chinensis)
How it was run: as §3

persian speedwell [20] = test: Test Example 5: herbicidal effect by foliage application, plastic box (Table 20, symbol R); format: in vivo, Persian speedwell (Veronica persica); settings: foliage application, three weeks after application
How it was run: as §1

green foxtail [21] = test: Test Example 4: herbicidal effect by soil treatment (Table 19, symbol G); format: in vivo, green foxtail (Setaria viridis)
How it was run: as §2

barnyard grass [22] = test: Test Example 5: herbicidal effect by foliage application, plastic box (Table 20, symbol H); format: in vivo, barnyard grass (Echinochloa crus-galli); settings: foliage application, three weeks after application
How it was run: as §1

barnyard grass [23] = test: Test Example 4: herbicidal effect by soil treatment (Table 19, symbol H); format: in vivo, barnyard grass (Echinochloa crus-galli)
How it was run: as §2

false cleavers [24] = test: Test Example 5: herbicidal effect by foliage application, plastic box (Table 20, symbol Q); format: in vivo, false cleavers (Galium spurium); settings: foliage application, three weeks after application
How it was run: as §1

chickweed [25] = test: Test Example 5: herbicidal effect by foliage application, plastic box (Table 20, symbol P); format: in vivo, common chickweed (Stellaria media); settings: foliage application, three weeks after application
How it was run: as §1

wild oat [26] = test: Test Example 5: herbicidal effect by foliage application, plastic box (Table 20, symbol I); format: in vivo, wild oat (Avena fatua); settings: foliage application, three weeks after application
How it was run: as §1

windgrass [27] = test: Test Example 4: herbicidal effect by soil treatment (Table 19, symbol L); format: in vivo, windgrass (Apera spica-venti)
How it was run: as §2

[28] = amount of applied herbicide 144 g/ha
[29] = amount of applied herbicide 320 g/ha

Cc1nn(C)c(=O)c(-c2c(-c3ccc(C(F)(F)F)nc3)sc3ccccc23)c1O [1-078]
herbicidal effect grade, F: southern crabgrass (southern crabgrass [1]; 144 g/ha): 0 (Herbicidal rate of 5% or less (almost no effect))
herbicidal effect rating, M: velvetleaf (velvetleaf [2]; [28]): 0 (Herbicidal rate of 5% or less (almost no effect))
herbicidal effect rating, K: Italian ryegrass (Italian ryegrass [3]; [28]): 0 (Herbicidal rate of 5% or less (almost no effect))
herbicidal effect grade, G: green foxtail (green foxtail [4]; 144 g/ha): 0 (Herbicidal rate of 5% or less (almost no effect))
herbicidal effect grade, J: blackgrass (blackgrass [5]; 144 g/ha): 0 (Herbicidal rate of 5% or less (almost no effect))
herbicidal effect on E (rice flat sedge), rating 0-5 (rice flat sedge; 144 g/ha): 3 (Herbicidal rate of 40% or more and less than 70%)
herbicidal effect rating, N: redroot pigweed (redroot pigweed [6]; [28]): 0 (Herbicidal rate of 5% or less (almost no effect))
herbicidal effect rating, P: chickweed (chickweed [7]; [28]): 0 (Herbicidal rate of 5% or less (almost no effect))
herbicidal effect rating, Q: false cleavers (false cleavers [8]; [28]): 0 (Herbicidal rate of 5% or less (almost no effect))
herbicidal effect grade, K: Italian ryegrass (Italian ryegrass [9]; 144 g/ha): 0 (Herbicidal rate of 5% or less (almost no effect))
herbicidal effect rating, J: blackgrass (blackgrass [10]; [28]): 0 (Herbicidal rate of 5% or less (almost no effect))
herbicidal effect grade, L: windgrass (windgrass [11]; 144 g/ha): 0 (Herbicidal rate of 5% or less (almost no effect))
herbicidal effect rating, I: wild oat (wild oat [12]; [28]): 0 (Herbicidal rate of 5% or less (almost no effect))
herbicidal effect grade, M: velvetleaf (velvetleaf [13]; 144 g/ha): 5 (Herbicidal rate of 90% or more (almost completely withered))
herbicidal effect rating, R: persian speedwell (persian speedwell [14]; [28]): 2 (Herbicidal rate of 20% or more and less than 40%)
herbicidal effect rating, F: southern crabgrass (southern crabgrass [15]; [28]): 0 (Herbicidal rate of 5% or less (almost no effect))
herbicidal effect grade, O: lambsquarters (lambsquarters [16]; 144 g/ha): 2 (Herbicidal rate of 20% or more and less than 40%)
herbicidal effect on H (barnyard grass), rating 0-5 (barnyard grass [17]; 144 g/ha): 1 (Herbicidal rate of 5% or more and less than 20%)
herbicidal effect rating, O: lambsquarters (lambsquarters [18]; [28]): 3 (Herbicidal rate of 40% or more and less than 70%)
herbicidal effect grade, N: redroot pigweed (redroot pigweed [19]; 144 g/ha): 0 (Herbicidal rate of 5% or less (almost no effect))
herbicidal effect on D (Chinese sprangletop), rating 0-5 (Chinese sprangletop; 144 g/ha): 0 (Herbicidal rate of 5% or less (almost no effect))
herbicidal effect grade, R: persian speedwell (persian speedwell [20]; 144 g/ha): 5 (Herbicidal rate of 90% or more (almost completely withered))
herbicidal effect rating, G: green foxtail (green foxtail [21]; [28]): 0 (Herbicidal rate of 5% or less (almost no effect))
herbicidal effect grade, H: barnyard grass (barnyard grass [22]; 144 g/ha): 0 (Herbicidal rate of 5% or less (almost no effect))
herbicidal effect rating, H: barnyard grass (barnyard grass [23]; [28]): 2 (Herbicidal rate of 20% or more and less than 40%)
herbicidal effect grade, Q: false cleavers (false cleavers [24]; 144 g/ha): 1 (Herbicidal rate of 5% or more and less than 20%)
herbicidal effect grade, P: chickweed (chickweed [25]; 144 g/ha): 5 (Herbicidal rate of 90% or more (almost completely withered))
herbicidal effect grade, I: wild oat (wild oat [26]; 144 g/ha): 0 (Herbicidal rate of 5% or less (almost no effect))
herbicidal effect rating, L: windgrass (windgrass [27]; [28]): 0 (Herbicidal rate of 5% or less (almost no effect))

Cc1nn(C)c(=O)c(-c2c(-c3ccsc3)sc3ccccc23)c1O [1-083]
herbicidal effect grade, F: southern crabgrass (southern crabgrass [1]; 320 g/ha): 2 (Herbicidal rate of 20% or more and less than 40%)
herbicidal effect rating, M: velvetleaf (velvetleaf [2]; [29]): 0 (Herbicidal rate of 5% or less (almost no effect))
herbicidal effect rating, K: Italian ryegrass (Italian ryegrass [3]; [29]): 3 (Herbicidal rate of 40% or more and less than 70%)
herbicidal effect grade, G: green foxtail (green foxtail [4]; 320 g/ha): 0 (Herbicidal rate of 5% or less (almost no effect))
herbicidal effect grade, J: blackgrass (blackgrass [5]; 320 g/ha): 1 (Herbicidal rate of 5% or more and less than 20%)
herbicidal effect on E (rice flat sedge), rating 0-5 (rice flat sedge; 320 g/ha): 4 (Herbicidal rate of 70% or more and less than 90%)
herbicidal effect rating, N: redroot pigweed (redroot pigweed [6]; [29]): 0 (Herbicidal rate of 5% or less (almost no effect))
herbicidal effect rating, P: chickweed (chickweed [7]; [29]): 5 (Herbicidal rate of 90% or more (almost completely withered))
herbicidal effect rating, Q: false cleavers (false cleavers [8]; [29]): 3 (Herbicidal rate of 40% or more and less than 70%)
herbicidal effect grade, K: Italian ryegrass (Italian ryegrass [9]; 320 g/ha): 4 (Herbicidal rate of 70% or more and less than 90%)
herbicidal effect rating, J: blackgrass (blackgrass [10]; [29]): 0 (Herbicidal rate of 5% or less (almost no effect))
herbicidal effect grade, L: windgrass (windgrass [11]; 320 g/ha): 3 (Herbicidal rate of 40% or more and less than 70%)
herbicidal effect rating, I: wild oat (wild oat [12]; [29]): 2 (Herbicidal rate of 20% or more and less than 40%)
herbicidal effect grade, M: velvetleaf (velvetleaf [13]; 320 g/ha): 5 (Herbicidal rate of 90% or more (almost completely withered))
herbicidal effect rating, R: persian speedwell (persian speedwell [14]; [29]): 5 (Herbicidal rate of 90% or more (almost completely withered))
herbicidal effect rating, F: southern crabgrass (southern crabgrass [15]; [29]): 0 (Herbicidal rate of 5% or less (almost no effect))
herbicidal effect grade, O: lambsquarters (lambsquarters [16]; 320 g/ha): 0 (Herbicidal rate of 5% or less (almost no effect))
herbicidal effect on H (barnyard grass), rating 0-5 (barnyard grass [17]; 320 g/ha): 3 (Herbicidal rate of 40% or more and less than 70%)
herbicidal effect rating, O: lambsquarters (lambsquarters [18]; [29]): 0 (Herbicidal rate of 5% or less (almost no effect))
herbicidal effect grade, N: redroot pigweed (redroot pigweed [19]; 320 g/ha): 3 (Herbicidal rate of 40% or more and less than 70%)
herbicidal effect on D (Chinese sprangletop), rating 0-5 (Chinese sprangletop; 320 g/ha): 3 (Herbicidal rate of 40% or more and less than 70%)
herbicidal effect grade, R: persian speedwell (persian speedwell [20]; 320 g/ha): 3 (Herbicidal rate of 40% or more and less than 70%)
herbicidal effect rating, G: green foxtail (green foxtail [21]; [29]): 0 (Herbicidal rate of 5% or less (almost no effect))
herbicidal effect grade, H: barnyard grass (barnyard grass [22]; 320 g/ha): 0 (Herbicidal rate of 5% or less (almost no effect))
herbicidal effect rating, H: barnyard grass (barnyard grass [23]; [29]): 0 (Herbicidal rate of 5% or less (almost no effect))
herbicidal effect grade, Q: false cleavers (false cleavers [24]; 320 g/ha): 4 (Herbicidal rate of 70% or more and less than 90%)
herbicidal effect grade, P: chickweed (chickweed [25]; 320 g/ha): 5 (Herbicidal rate of 90% or more (almost completely withered))
herbicidal effect grade, I: wild oat (wild oat [26]; 320 g/ha): 3 (Herbicidal rate of 40% or more and less than 70%)
herbicidal effect rating, L: windgrass (windgrass [27]; [29]): 0 (Herbicidal rate of 5% or less (almost no effect))
